Assay results reported in patent US6235872A, “Proapoptotic peptides dependence polypeptides and methods of use” (The Burnham Institute, priority 1998, dated 2001).
Entries after “also recorded” stand apart in the source; their conditions may differ. Where no end group is shown, it is not given here.

Tests used:
[1] = test system: isolated mitochondria; assay: Mitochondrial swelling followed spectrophotometrically at 520 nm (FIG. 3A); assay type: biochemical, rats; settings: 0.5 mM, positive control
Protocol: Consistent with these observations, molecules such as Bcl-2 which inhibit apoptosis inhibit mitochondrial swelling. Briefly, mitochondria were prepared as previously described (Ellerby et al. J. Neurosci. 17:6165-6178 (1997)) except for the following modifications. The rats were sacrificed by CO2 inhalation without fasting and the mitochondria were isolated in MIB buffer (210 mM mannitol, 70 mM sucrose, 0.05% BSA, 1 mM EGTA, 5 mM Hepes-NaOH, pH 7.4). The mitochondrial pellet samples resuspended in MCB buffer (300 mM mannitol, 10 mM KH2 PO4, 0.1% BSA, pH 7.2) and applied to a discontinuous sucrose gradient (1.6 M sucrose, 10 mM KH2 PO4, pH 7.5; 1.2 M sucrose, 10 mM KH2 PO4, pH 7.5) were centrifuged at 48,500 g for 1 hour. […] The mitochondrial pellets were collected, resuspended in MSB, and stored on ice. After the addition of 50 μM of the peptide, mitochondrial swelling was followed spectrophotometrically at 520 nm (Petronilli et al. J. Biol. Chem. 269:16638-16642 (1994)) in CFS (220 mM mannitol, 68 mM sucrose, 2 mM NaCl, 5 mM KH2 PO4, 2 mM MgCl2, 5 mM succinate, 10 mM Hepes-NaOH, 2 mM ATP, 50 μg/ml creatine kinase, 10 mM phosphocreatine, 0.75 μg/ml rotenone, pH 7.4).

[2] = test system: 293T cells; assay: Apoptosis in 293T cells expressing FKBP/p75^NTR chimeras with or without FK1012; assay type: cell-based; settings: 2 μM FK1012, 35 μM tamoxifen
From the text: The FKBP12-tagging vector MF1E/MF3E, which included an amino-terminal myristylation site for membrane insertion (Spencer et al. Science 262:1019-1024 (1993)), contains one and three repeats of the FK-binding protein (FKBP) sequence. The FKBP12 vector served as a PCR template and was amplified using primers flanked by Nhe I (5' primer) or Nde I (3' primer) sites to produce DNA fragments consisting of one or three FK-binding domains (FKBP). The resulting PCR products contained either one or three FKBP sequence repeats and were subcloned into pcDNA3.1. A DNA fragment encoding an intracytoplasmic form of p75^NTR was removed from the pUC18-p75 plasmid by digestion with Nde I and Bam HI, and the DNA fragment was ligated to the carboxy-terminus of the FKBP sequences within the pcDNA3.1-FKBP construct. The resulting two expression vectors encoded FKBP/p75^NTR chimeras comprising one or three FKBP repeats at the amino-terminus fused to an intracytoplasmic form of p75^NTR at the carboxy-terminus.
The stimulation of cellular apoptosis by Fas and TNFR I is induced by ligand binding which triggers multimerization of Fas and TNFR I. The assembly of such a death-inducing signaling complex contributes to cellular apoptosis by activating caspase-8. The effect that dimerization or multimerization has on the ability of p75^NTR to stimulate apoptosis was analyzed. […]

[3] = test system: PC3; assay: Cell viability after peptide treatment, PC3; assay type: cell-based, human; settings: 50 μM stated for tat-GG-SATLDALLAALRRI; 18 hours
Protocol: (§1) Briefly, NTera 2 human neuronal cells, R2 neural cells, CSM14.1 neural cells, LNCaP cells, SH-SY5Y human neuroblastoma cells and PC12 NRA5 cells were grown in DMEM/F12 (50/50) supplemented with 5% fetal bovine serum and seeded onto 96-well plates. […] The purified peptides were dissolved in tissue culture grade water and diluted to 50 μM and 100 μM in serum free medium and directly added to the cells in 96-well plates. The cells were incubated at 37° C. for 18 hours and 20 μM propidium iodide was added. Cell viability was determined using a fluorimeter as previously described (Kane et al. J. Neurosci. Res. 40:269-275 (1995)).

[4] = test system: LNCaP cells; assay: Cell viability after peptide treatment, LNCaP; assay type: cell-based; settings: 50 μM stated for tat-GG-SATLDALLAALRRI; 18 hours
Protocol: as §1

[5] = test system: NTera 2 human neuronal cells; assay: Cell viability after peptide treatment, NTera 2; assay type: cell-based; settings: 50 μM stated for tat-GG-SATLDALLAALRRI; 18 hours
Protocol: as §1

[6] = test system: PC12 NRA5 cells; settings: 100 μM peptide; 18 hours
Protocol: Briefly, NTera 2 human neuronal cells, R2 neural cells, CSM14.1 neural cells, LNCaP cells, SH-SY5Y human neuroblastoma cells and PC12 NRA5 cells were grown in DMEM/F12 (50/50) supplemented with 5% fetal bovine serum and seeded onto 96-well plates. The peptides were synthesized and HPLC purified (Coast Scientific, San Diego, Calif.). The purified peptides were dissolved in tissue culture grade water and diluted to 50 μM and 100 μM in serum free medium and directly added to the cells in 96-well plates. The cells were incubated at 37° C. for 18 hours and 20 μM propidium iodide was added. Cell viability was determined using a fluorimeter as previously described (Kane et al. J. Neurosci. Res. 40:269-275 (1995)).

[7] = test system: COS-7; assay: Cell viability after peptide treatment, COS-7; assay type: cell-based; settings: 50 μM stated for tat-GG-SATLDALLAALRRI; 18 hours
Protocol: as §1

[8] = test system: NTera 2, R2, CSM14.1, LNCaP, SH-SY5Y and PC12 NRA5 cells; assay: Induction of cell death by peptides added to cells (propidium iodide, Table 1); assay type: cell-based; settings: peptide 50 μM and 100 μM in serum free medium, 18 hours
Protocol: A region of a dependence polypeptide that mediates apoptosis in cells was analyzed for its ability to stimulate apoptosis in cells. […] The effect of replacing leucine with lysine at position 7 (purple, […]; SEQ ID NO:41; tat-purple, tat-GG-[…]; SEQ ID NO:42), removing the carboxy-terminal "RRI" sequence (gray, SATLDALLAAL; SEQ ID NO:43; tat-gray, tat-GG--SATLDALLAAL; SEQ ID NO:44) or amino-terminal "SATLD" sequence (green; […]; SEQ ID NO:45) on the proapoptotic activity of a dependence peptide was examined. […] The 12 amino acid HIV tat protein fragment ([…]; SEQ ID NO:52; hereinafter termed "tat"), which facilitates cellular entry, also was included on the amino terminus of some of the peptides tested. […] For convenience, the hyphen in the above amino acid sequences is a nomenclature intended to set apart the proapoptotic dependence peptides and variants thereof or control peptides from other amino acid residues contained in the peptide.

[9] = test system: SH-SY5Y human neuroblastoma cells; assay: Cell death by tat-linked peptides and mutated variants in SH-SY5Y cells (FIG. 2); assay type: cell-based; settings: relative to unmutated tat-GG-SATLDALLAALRRI
Protocol: To further analyze the effect of particular point mutations on apoptosis, additional studies employing dependence peptides and mutated variants linked to tat were performed in SH-SY5Y cells. The results shown in FIG. 2 are of studies in which quadruplicate samples were averaged, and the studies were repeated 2 to 10 times for each peptide. Each column represents the percentage cell death and the bars indicate the standard error. The amount of peptide added to the cells is indicated above each column.

## [Ca+2].[Cl-].[Cl-] [calcium chloride]
[1]
  mitochondrial swelling (decreased absorbance at 520 nm): rapid swelling

## FK1012
[2]
  apoptosis of cells containing single copy or triple copy FKBP/p75^NTR protein chimera: apoptosis was blocked

## GRKKRRQRRRPPGGDLSLARLATARLAI [tat-yellow, reference compound]
[3]
  cell viability, PC3: 97%

## GRKKRRQRRRPPGGKDRNLRRITRMVLV [tat-turquoise, reference compound]
[3]
  cell viability, PC3: 87.9%
[4]
  cell viability, LNCaP: 46.7%
[5]
  cell viability, NTera 2: 67.6%
[6]
  cell viability, NRA 5 cells: 95.7%

## GRKKRRQRRRPPGGSATLDAKLAALRRI [tat-purple]
[7]
  cell viability, COS-7: 97.8%
[3]
  cell viability, PC3: 92.8%
[5]
  cell viability, NTera 2: 69.3%

## GRKKRRQRRRPPGGSATLDALLAAL [tat-gray, tat-GG-SATLDALLAAL]
[7]
  cell viability, COS-7: 97.1%
[3]
  cell viability, PC3: 90.5%
[4]
  cell viability, LNCaP: 59.1%
[5]
  cell viability, NTera 2: 76.7%

## GRKKRRQRRRPPGGSATLDALLAALRRI [tat-blue]
[7]
  cell viability, COS-7: 1.5%
[3]
  cell viability, PC3: 4.2%
[4]
  cell viability, LNCaP: 0%
[5]
  cell viability, NTera 2: 1.3%
[6]
  cell viability, NRA 5 cells: 0%

## INLKALAALAKKIL [MP]
[8]
  Effect on apoptosis: underwent apoptosis; also recorded: Apoptotic

## tat-GG-SATLDALLAALOOI (GRKKRRQRRRPPGGSATLDALLAALQQI) [arginines at positions 12 and 13 replaced with glutamine]
[9]
  decrease of the ability to stimulate SH-SY5Y cell death: 80%
